US11254986B2, “Gene signature for immune therapies in cancer” (ALMAC DIAGNOSTICS LIMITED, priority 2015, dated 2022)

What was measured:
[1] = system: HCC1937 parental and HCC1937-BR cells; conditions: HCC1937 BRCA1 mutant cell-line relative to BRCA1 corrected cell-line (HCC1937-BR); FIG. 8C
Experimental: The cell-lines were routinely maintained in RPMI-1640 medium supplemented with 50 U penicillin/ml, 50 μg streptomycin/ml, 2 mM glutamine, 1 mM Sodium Pyruvate and 20% (v/v) fetal bovine serum (FBS). The HCC1937-EV and HCC937-BR cell-lines also required 0.2 ml/mg geneticin. Cell-lines were cultured at 37° C. with a humidified atmosphere of 5% CO2.
Twenty-four hours following seeding the cells were exposed to medium containing increasing doses of drug. Cell medium was replenished every 4-5 days. After 12-14 days the cells were fixed in methanol, stained with crystal violet and counted. The percentage survival of control for a given dose was calculated as the plating efficiencies for that dose divided by the plating efficiencies of vehicle-treated cells. Survival curves and half maximal inhibitory concentration (IC50) values were calculated using GraphPad Prism.

[2] = system: CXCL10 and CCL5 expression; test: qRT-PCR of chemokine expression after DNA damaging agents, paclitaxel or nocodazole; type: cell-based
Experimental: Reverse transcription was performed using the First Strand cDNA synthesis kit (Roche). 500 ng of RNA was reverse transcribed according to manufacturer's instructions. Exon-spanning qPCR primers were designed using Roche Universal Probe Library Assay Design Centre and were used at a concentration of 0.5 μM. The following primer sequences were used:
To preform absolute quantification from qPCR, we used a standard curve method. The efficiency of each primer set was derived from the standard curve using the following equation: E=10^(−1/slope)
(§1) The product of Reverse Transcription was diluted 1:10 in Nuclease Free Water (NFW). Each 10 μl PCR reaction, consisted of 0.5 μl of 10 μM Forward primer, 0.5 μl of 10 μM Reverse primer, 5 μl of 2× LightCycler® 480 SYBR Green I Master mix (Roche), 1.5 μl NFW and 2.5 μl diluted Reverse Transcription product. These 10 μl reactions were pipetted into wells of a LightCycler® 480 multiwell 96 plate (Roche), the plate was then sealed using clear adhesive film (Roche). The plate was placed into the LightCycler® 480 (Roche) and run with the following protocol. (95° C. for 10 mins, 45 cycles of; 95° C. for 15 secs, 55° C. for 30 secs and 72° C. for 30 secs, finishing with a melt curve for confirmation of primer specificity. All qPCR data was analysed using the LightCycler® 480 software provided by Roche. For analysis, the Cp value from a technical duplicate was calculated and the relative amount of a gene was calculated Cp value to an in-run standard curve. Each mean value was then normalised to the mean concentration of the housekeeping gene PUM1 within the corresponding sample, by dividing the concentration of the target gene by the concentration of the house keeping gene. Relative expression refers to the gene expression levels that have been normalised to the housekeeping gene and made relative to the associated control samples. From these normalized values, the fold changes for each gene were calculated and the average of three individual fold changes were derived from three independent experimental triplicates. The unpaired, two-tailed students T-test available on GraphPad Prism 5.0 software was used to detect statistical significance.
For analysis of effects of ATM, ATR and DNAPK on cytokine expression, cells were seeded in six well plates at ˜60% confluency. Following incubation overnight, small molecule inhibitors of ATM (Ku60019, Selleck Chem) at a dose of 1 μm, ATR (ETP46464, Selleck Chem) at a dose of 5 μm and DNAPK (Nu7441, Selleck Chem) at a dose of 5 μm were added. At 24 hours, RNA and protein samples were obtained for analysis. For analysis of the effects of DNA damaging agents and paclitaxel on cytokine expression, cells were seeded in six well plates at ˜60% confluency. […]

[3] = system: cytosolic DNA in HeLa cells; test: PicoGreen fluorescent staining of double-stranded DNA, confocal microscopy; type: cell-based; conditions: IC50 doses, FIG. 19C
Excerpt: We probed cytosolic fractions of DDRD positive cells MDA-436-EV and +BRCA1, and HCC1937-EV and +BRCA1 cells for the presence of Histone H3, and found Histone H3 protein expression was increased in the repair deficient lines (EV) (FIG. 19A, top panel of blots). […] PicoGreen fluorescent staining was used to detect double-stranded DNA (ds-DNA). […] This increase in cytosolic DNA was however not observed in response to treatment with Paclitaxel (HeLa+Paclitaxel IC50) (FIG. 19C).

[4] = system: CXCL10 and CCL5 chemokine production in MDA-MB-436 EV cells; test: Chemokine expression after small molecule inhibitors of ATM, ATR and DNAPK; type: cell-based; conditions: DDRD positive cells (MDA-MB-436 EV), compared to the DMSO control, FIG. 16
Experimental: as §1
(§2) For analysis of effects of ATM, ATR and DNAPK on cytokine expression, cells were seeded in six well plates at ˜60% confluency. Following incubation overnight, small molecule inhibitors of ATM (Ku60019, Selleck Chem) at a dose of 1 μm, ATR (ETP46464, Selleck Chem) at a dose of 5 μm and DNAPK (Nu7441, Selleck Chem) at a dose of 5 μm were added. At 24 hours, RNA and protein samples were obtained for analysis. For analysis of the effects of DNA damaging agents and paclitaxel on cytokine expression, cells were seeded in six well plates at ˜60% confluency. Following incubation overnight, IC50 doses of Cisplatin and Paclitaxel (obtained from fresh Pharmacy stock) and Hydroxyurea (Sigma Aldrich) were added for 24 hours to 48 hours. At the appropriate timepoint, RNA and protein samples were obtained for analysis.

[5] = system: HeLa, HCC1937 EV and MDA-MB-436 EV cells; test: Cell cycle analysis (propidium iodide, flow cytometry); type: cell-based; conditions: anti-mitotic agent treatment; FIG. 15
Experimental: as §2
Cells were trypsinised and fixed in 70% ethanol, incubated with RNase A and propidium iodide (P1) and analysed using a BD FACSCalibur™ (BD Biosciences, CA, USA). Data was analysed using Flow Jo software to perform cell cycle analysis.

PDL1 = PDL1 expression in RKO cells after Interferon-γ, qPCR and western blot; type: cell-based; conditions: for PDL1 gene expression levels (fold change): RKO Par, RKO Fanc C and RKO Fanc G cells, FIG. 27B
Experimental: as §1, with “Relative expression refers to the gene expression levels that have been normalised to the housekeeping gene and made relative to the associated control samples.” left out, “The unpaired, two-tailed students T-test available on GraphPad Prism 5.0 software was used to detect statistical significance.” left out
Adherent cells formed whole cell lysates suspended in RIPA buffer containing phosphatase and protease inhibitors (Roche Inhibitor cocktails, Germany). […] Protein was quantified using the BCA Assay (Pierce, Rockford, Ill., USA) according to manufacturer's instructions using a plate reader. […] Results were then visualized and recorded using Luminata Crescendo Western HRP substrate (Millipore, UK) and an alpha imager.
The cytotoxic effects of lymphocytes on cancer cells was measured using LIVE/DEAD® Cell-Mediated Cytotoxicity Kit (Life technologies, Paisley, UK.) RKO parental and Fanc G cells were trypsinised, counted and stained with green-fluorescent membrane stain DiOC18 in PBS at a concentration of 2 μl of stain per ml. […]

[6] = system: RKO Parental and RKO FANCG-/- cells; test: Lymphocyte (PBMC) mediated cytotoxicity, LIVE/DEAD Cell-Mediated Cytotoxicity Kit; type: cell-based; conditions: pre-treatment of cancer cells, PBMC ratio 5:1, p-value<0.05, FIG. 27A
Experimental: The cytotoxic effects of lymphocytes on cancer cells was measured using LIVE/DEAD® Cell-Mediated Cytotoxicity Kit (Life technologies, Paisley, UK.) RKO parental and Fanc G cells were trypsinised, counted and stained with green-fluorescent membrane stain DiOC18 in PBS at a concentration of 2 μl of stain per ml. Cells were incubated with the stain for 20 minutes at 37° C. before being seeded into 12 well plates at a density of 1×10^5 cells per well and left to adhere overnight. The next day PMBCs were counted and added to RKO cell cultures at the ratios indicated. For 1:1 ratio 1×10^5 PBMCs were added, for 5:1 ratio 5×10^5 PBMCs were added. The co-cultures were incubated for 4 hours before cells were collected for analysis by flow cytometry. A BD FACSCalibur™ (BD Biosciences, CA, USA) was used for the analysis of samples and Flow Jo software was used for data analysis. Cells were treated with interferon-γ at a concentration of 20 ng/ml for 16 hours.

In the case of `O=C(c1cc(Cc2n[nH]c(=O)c3ccccc23)ccc1F)N1CCCNCC1` [KU0058948], the “sensitivity to PARP-1 inhibitor (clonogenic survival)” value [1] is reported as “more sensitive”.

`CC(=O)O[C@H]1C(=O)[C@@]2(C)[C@H]([C@H](OC(=O)c3ccccc3)[C@]3(O)C[C@H](OC(=O)[C@H](O)[C@@H](NC(=O)c4ccccc4)c4ccccc4)C(C)=C1C3(C)C)[C@]1(OC(C)=O)CO[C@@H]1C[C@@H]2O` [Paclitaxel] was tested, and the “CXCL10 and CCL5 relative expression” value ([2]; HeLa, HCC1937 EV and MDA-MB-436 EV cells, IC-50 doses, compared to DMSO control, FIG. 14) was “not significantly increased” and the “cytosolic DNA (PicoGreen, confocal microscopy)” value [3] was “not observed”.

In the case of `O=c1cc(N2CCOCC2)oc2c(-c3cccc4c3sc3ccccc34)cccc12` [Nu7440], the “CXCL10 and CCL5 chemokine production / expression levels” value [4] is reported as “No significant decreases” and the “CXCL10 and CCL5 chemokine production / expression levels” value ([4]; listed as DNAPKi) is reported as “significantly increased”.

`C[C@@H]1CN(CC(=O)Nc2ccc3c(c2)Cc2cccc(-c4cc(=O)cc(N5CCOCC5)o4)c2S3)C[C@H](C)O1` [Ku60019] was tested, and the “CXCL10 and CCL5 chemokine production / expression levels” value [4] was “No significant decreases”.

In the case of `COC(=O)Nc1nc2ccc(C(=O)c3cccs3)cc2[nH]1` [Nocodazole], the “mRNA expression of CXCL10” value ([2]; anti-mitotic agent treatment, FIG. 15A) is reported as “reduced mRNA expression of CXCL10” and the cell cycle arrest [5] is reported as “arrest in the M phase”.

For “Interferon-γ: Interferon-γ, cells treated at 20 ng/ml for 16 hours”, the “PDL1 protein level (western blotting)” value (PDL1; RKO Par and RKO Fanc G cells, pre-treatment, FIG. 27C) was “enhanced PDL1 levels”, the “PDL1 gene expression levels (fold change)” value (PDL1) was “significantly increases PDL1 gene expression levels” and the “PDL1 gene expression levels (fold change)” value (PDL1; listed as IFN-γ) was “drives PDL-1 expression in DDRD+”.

In the case of `CC(C)(C#N)c1ccc(N2C(=O)OCc3cnc4ccc(-c5cnc6ccccc6c5)cc4c32)cc1` [ETP-46464], the “CXCL10 and CCL5 chemokine production / expression levels” value [4] is reported as “No significant decreases”.

B1: Interferon-γ: Interferon-γ, cells treated at 20 ng/ml for 16 hours (protein, UniProt P01579 24-161, looked up)
Interferon gamma: QDPYVKEAENLKKYFNAGHSDVADNGTLFLGILKNWKEESDRKIMQSQIVSFYFKLFKNFKDDQSIQKSVETIKEDMNVKFFNSNKKKRDDFEKLTNYSVTDLNVQRKAIHELIQVMAELSPAAKTGKRKRSQMLFRG
For B1, the “lymphocyte mediated cytotoxicity, differential between RKO FANCG-/- and RKO Parental cells” value [6] was “extends the differential cytotoxicity” and the “lymphocyte mediated cytotoxicity, differential between RKO FANCG-/- and RKO Parental cells” value ([6]; listed as IFN-γ) was “protects against PBMC mediated cytotoxicity”.
